Reference: patent US20070142341A1, “Use of steroid derivatives for the treatment of angiotensin ll related disease e.g. cardiovascular and proliferative disorders” (priority 2003, published 2007)

Experiments:
[1] = test system: rat aortic smooth muscle cells (RASMC); assay: 3H-methylthymidine incorporation into rat aortic smooth muscle cells stimulated with Ang II; assay type: cell-based; conditions: for Tritiated thymidine uptake / Effect on tritium incorporation induced by Ang II: 48 hours; for Tritiated thymidine uptake: serum-free medium, control 57.6, Ang II alone 87.1; for Effect on tritium incorporation induced by Ang II: Ang II 10^−7 M
From the text: (§1) Aortic smooth muscle cells (ASMCs) were isolated from rat thoracic and abdominal artery (RASMC) and bovine aorta (BASMC) by the media explant method and cultured over several passages.
(§2) Segments of both abdominal and thoracic aortas were obtained from rats by careful dissection from killed rats. Segments of aorta were obtained from calves under anaesthesia. The segments of aorta were placed in a depression slide containing tissue culture medium, after which the adventitia and the outer portion of each segment was carefully removed under a dissecting microscope. The remaining inner portion of the tissue and the intima were removed to a separate dissecting dish and washed several times with fresh culture medium. At this point each segment was cut into approximately 1 mm squares and placed on 25 cm^2 tissue culture flask. The flasks were loosely capped and placed in a humidified CO2 incubator After two hours, 4 ml of RPMI-1640 culture medium supplemented with 100 units/ml of penicillin, […] streptomycin, […] L-glutamine and 20% […] was carefully added to the flasks without dislodging the tissue. Samples were fed with fresh medium after one week. The cells from the explants were relatively confluent within a period of approximately 2 weeks. They were then rinsed with PBS, and subsequently trypsinized with a solution of 0.125% trypsin and 0.02% EDTA in PBS for 1-2 min al 37° C. The resulting suspension of cells was pipetted into 75 cm^2 tissue culture flasks containing 10 ml culture medium and incubated as above.
(§3) Experiments were performed with cells from passages 3 to 5.
^3H-methylthymidine incorporation into rat aortic smooth muscle cells (RASMC). Quiescent RASMC (0.3×10^5/ml/well) were incubated with serum-free medium (SFM) containing Ang II (10^−7 M) with or without different concentrations of trilostane for 48 hours. The results are shown in Table 1. ^3H-methylthymidine incorporation into RASMC was increased in the Ang II treated group.
Using the same tritiated thymidine uptake methodology as for Example 1, the actions of Losartan on angiotensin II-stimulated cell proliferation were tested in the presence and absence of trilostane.

[2] = test system: vascular smooth muscle cells; assay: Fura-2 [Ca2+]i signal response to angiotensin II in smooth muscle cells cultured from trilostane treated rats; assay type: cell-based, rat; set-up: key: + = calcium response; − = no response; conditions: cells (TTSMC) from rats given trilostane 4 mg/kg per day for 5 days
Procedure: Male Wistar rats (˜500 g) were treated with 0.1 ml ethanol in cotton seed oil with trilostane 4 mg/kg per day for 5 days. Control animals received the vehicle alone. Animals were then treated with 0.1 ml (500 u) heparin IP, before killing by stunning and cervical dislocation. Blood was collected from neck vessels, centrifuged to obtain plasma which was stored at −20° C. until required for steroid analysis. Corticosterone and aldosterone concentrations were assayed using commercially available kits (Diagnostic Systems Laboratories Inc., Webster, Tex., USA). Circulating concentrations of corticosterone (FIG. 3 (a)) and aldosterone (FIG. 3(b)) are shown for control animals and animals receiving trilostane treatment. […] Primary cultures were established of RASMC obtained from trilostane treated and control animals, using the established methods. For [Ca^2+]i measurement, the cells were loaded with 1 μM fura-2 for 30 min in medium-modified Krebs-Ringer bicarbonate solution (3.6 mM K^+, 1.2 mM Ca^2+, 0.5 mM Mg^2+, 5 mM Hepes and 20 mM HCO^−) at 37° C. For simultaneous measurements of measuring the fluorescence of fura-2, the cells plated on coverslips were mounted on the stage of an inverted microscope (Zeiss) in a modified Krebs-Ringer bicarbonate solution. The excitation wavelengths were 340 and 380 nm, and emission was detected at 510 nm. [Ca^2+]i was calculated from the ratio of fluorescence intensities at excitation wavelengths of 340 and 380 nm. Fields of cells, ˜10 cells per field, were tested from control and trilostane treated animals. The results are shown in Table 3 and FIGS. (c) and (d) wherein the arrow indicates the time of application of angiotensin II. Characteristic calcium signals obtained by stimulation of vascular smooth muscle cells from control animals (FIG. 3(c)) and trilostane treated animals (FIG. 3(d)) by 10 nmol/L angiotensin II.

AT1 receptor mRNA = AT1 receptor mRNA expression by RT-PCR and real-time quantitative RT-PCR in RASMC (FIG. 4); assay type: cell-based, rat; conditions: 48 hours, trilostane added to angiotensin II, FIG. 4, P<0.01
Procedure: […] Real-time RT-PCR was performed using Brilliant SYBR Green QRT-PCR Master Mix Kit, 1-step based on real-time detection of accumulated fluorescence (M×300P, Stratagene, Amsterdam). Results are means, SEM too small to show. **=P<0.01.

[3] = test system: circulating adrenal steroids; assay: Circulating plasma adrenal steroids in whole, healthy rats (radioimmunoassay, FIG. 1); assay type: in vivo, rat
Procedure: Trilostane has been used in treatments that are aimed at suppressing adrenal steroid secretion. Examples of adrenal steroids include cortisol, aldosterone and corticosterone. In practice, in patients with normally functioning adrenals, circulating adrenal steroids are reduced only at high trilostane dosage levels upwards of 8 to 10 mg/kg/day equivalent, and this is the regime most frequently used (Beardwell et al. 1985, Clin Endocrinol (Oxf), 23, 413-21, Engelhardt and Weber 1994, J Steroid Biochem Mol Biol, 40, 261-7). […] This can be shown by testing the levels of circulating adrenal steroids pre- and post-treatment and assessing whether or not the concentrations of adrenal steroids have been reduced. The levels of circulating adrenal steroids in the plasma can be tested by collecting circulating blood from a vein. Plasma is obtained by centrifugation and plasma steroid (for example, cortisol and aldesterone for humans, corticosterone and aldosterone in rats) is assayed using a conventional radioimmunoassay. Suitable corticosterone radioammunoassay kits are available from Amersham Biosciences UK Limited. Suitable aldosterone radioimmunoassay kits are available from Diagnostic Products Corporation.

[4] = test system: rat aortic smooth muscle cells (RASMC); assay: Cell count for rat aortic smooth muscle cells stimulated with Ang II; assay type: cell-based; conditions: 48 hours; for Cell Count: 20% FBS RPMI-1640, control 12.00 × 10^4, Ang II alone 21.30 × 10^4; for Effect on Ang II stimulated increase in cell number: Ang II 10^−7 M
From the text: as §1, §2, §3
Cell count for rat aortic smooth muscle cells (RASMC). RASMC (0.5×10^5/ml/well) were incubated with 20% FBS RPMI-1640 medium containing Ang II (10^−7 M) with or without different concentrations of trilostane for 48 hours.

[5] = test system: circulating adrenal steroids; conditions: patients with normally functioning adrenals; cited from earlier work
[6] = test system: circulating adrenal steroids; assay: Circulating corticosterone and aldosterone in male Wistar rats after 5 days of trilostane (FIG. 3a, b); assay type: in vivo, rat; conditions: trilostane 4 mg/kg per day for 5 days, versus vehicle control
Procedure: Male Wistar rats (˜500 g) were treated with 0.1 ml ethanol in cotton seed oil with trilostane 4 mg/kg per day for 5 days. Control animals received the vehicle alone. Animals were then treated with 0.1 ml (500 u) heparin IP, before killing by stunning and cervical dislocation. Blood was collected from neck vessels, centrifuged to obtain plasma which was stored at −20° C. until required for steroid analysis. Corticosterone and aldosterone concentrations were assayed using commercially available kits (Diagnostic Systems Laboratories Inc., Webster, Tex., USA). Circulating concentrations of corticosterone (FIG. 3 (a)) and aldosterone (FIG. 3(b)) are shown for control animals and animals receiving trilostane treatment.

myocardial injury = conditions: rat model, angiotensin-induced injury, treatment with eplerenone; cited from earlier work
[7] = test system: LV dysfunction and remodeling; conditions: dogs with chronic heart failure, 3 months of treatment, cited from earlier work
[8] = test system: severe congestive heart failure (CHF); conditions: patients with severe congestive heart failure, given in addition to ACE inhibitors; cited from earlier work
[9] = Ang II 10^−7 M + trilostane 10^−5 M
[10] = Ang II 10^−7 M + trilostane 10^−6 M
[11] = Ang II 10^−7 M + trilostane 10^−7 M
[12] = Ang II 10^−7 M + trilostane 10^−8 M
[13] = Ang II 10^−7 M + trilostane 10^−9 M
[14] = trilostane at 10^−6 and 10^−5 M
[15] = trilostane at 10^−9, 10^−8 and 10^−7 M

CCCCc1nc(Cl)c(CO)n1Cc1ccc(-c2ccccc2-c2nn[nH]n2)cc1 [Losartan]
Action on angiotensin II-stimulated cell proliferation (tritiated thymidine uptake) ([1]; Losartan with angiotensin II, absence of trilostane, FIG. 2): significantly eliminated the stimulatory action of angiotensin II | Cell proliferation (tritiated thymidine uptake) compared with controls ([1]; losartan alone group, FIG. 2): not different from controls

C[C@]12CC[C@H]3[C@@H](CC[C@@]45O[C@@H]4C(O)=C(C#N)C[C@]35C)[C@@H]1CC[C@@H]2O [trilostane, (4α,5α-17β)-4,5-epoxy-3,17-dihydroxyandrost-2-ene-2carbonitrile]
Calcium signal response to angiotensin II ([2]; Ang II 10^−6 M): + | Calcium signal response to angiotensin II ([2]; Ang II 10^−7 M): − | Calcium signal response to angiotensin II ([2]; Ang II 10^−8 M, control cells (NSMC) +): − | Calcium signal response to angiotensin II ([2]; Ang II 10^−9 M, control cells (NSMC) −): − | Calcium signal response to angiotensin II ([2]; Ang II 10^−10 M, control cells (NSMC) −): − | Calcium signal response to angiotensin II ([2]; Ang II 10^−11 M, control cells (NSMC) −): − | Tritiated thymidine uptake [1, 9]: 42.7 dpm | Tritiated thymidine uptake [1, 10]: 74.9 dpm | Tritiated thymidine uptake [1, 11]: 89.1 dpm | Tritiated thymidine uptake [1, 12]: 101.88 dpm | Tritiated thymidine uptake [1, 13]: 96.7 dpm | Cell proliferation (tritiated thymidine uptake) ([1]; trilostane additionally present with Losartan, FIG. 2, P<0.05 / P<0.01): decreased cell proliferation still further to less than control values | Effect on tritium incorporation induced by Ang II [1, 14]: inhibited | Effect on tritium incorporation induced by Ang II [1, 15]: not at 10^−9, 10^−8 and 10^−7 M | mRNA transcription of the gene coding for the angiotensin II type 1 receptor (AT1) (AT1 receptor mRNA): reduced even further | Circulating corticosterone levels ([3]; rats, trilostane 4 mg/kg/day or 8 mg/kg/day): Neither dose (4 mg/kg/day or 8 mg/kg/day) affects circulating corticosterone levels | Concentrations of aldosterone in circulating plasma ([3]; rats, trilostane 4 mg/kg/day, FIG. 1b): does not reduce concentrations of aldosterone in circulating plasma | Concentrations of aldosterone in circulating plasma ([3]; whole, healthy rats, trilostane 8 mg/kg/day, FIG. 1a): reduces concentrations of aldosterone in circulating plasma | Cell Count [4, 9]: 14.25 × 10^4 | Cell Count [4, 10]: 14.00 × 10^4 | Cell Count [4, 11]: 20.00 × 10^4 | Cell Count [4, 12]: 21.95 × 10^4 | Cell Count [4, 13]: 21.00 × 10^4 | Effect on Ang II stimulated increase in cell number [4, 14]: inhibited | Effect on Ang II stimulated increase in cell number [4, 15]: not at 10^−9, 10^−8 and 10^−7 M | Dosage level at which circulating adrenal steroids are reduced [5]: 8 to 10 mg/kg/day | Circulating concentrations of corticosterone ([6]; FIG. 3(a)): no significant differences | Circulating concentrations of aldosterone ([6]; FIG. 3(b)): no significant differences

COC(=O)[C@@H]1CC2=CC(=O)CC[C@]2(C)[C@@]23O[C@@H]2C[C@@]2(C)[C@@H](CC[C@@]24CCC(=O)O4)[C@H]13 [eplerenone]
COX-2 expression in the media of coronary arteries (myocardial injury): markedly attenuated | Myocardial injury (myocardial injury): markedly attenuated | Osteopontin expression in the media of coronary arteries (myocardial injury): markedly attenuated | Reduction in cardiomyocyte cross-sectional area ([7]; compared with control): 28% | Reduction of volume fraction of reactive interstitial fibrosis ([7]; compared with control): 37% | Reduction of volume fraction of replacement fibrosis ([7]; compared with control): 34% | LV end-diastolic wall stress ([7]; increased significantly in control dogs): decreased significantly | End-diastolic volume, end-systolic volume, and EF ([7]; volumes increased significantly in control dogs): remained unchanged

CC(=O)S[C@@H]1CC2=CC(=O)CC[C@]2(C)[C@H]2CC[C@@]3(C)[C@@H](CC[C@@]34CCC(=O)O4)[C@H]12 [spironolactone]
Mortality [8]: significantly reduced mortality
